# Measured values published in US20250101041A1, “POSITIVE ALLOSTERIC MODULATORS OF THE MUSCARINIC ACETYLCHOLINE RECEPTOR M4” (Vanderbilt University, priority 2022, published 2025).
# Molecular target: T1, human mAChR M4 (Homo sapiens, UniProt P08173)
# T1 construct: expressed in transfected cells; host or cells: CHO-K1 (American Type Culture Collection), stably expressing hM4 and Gqi5
# T1 sequence (P08173 1-479): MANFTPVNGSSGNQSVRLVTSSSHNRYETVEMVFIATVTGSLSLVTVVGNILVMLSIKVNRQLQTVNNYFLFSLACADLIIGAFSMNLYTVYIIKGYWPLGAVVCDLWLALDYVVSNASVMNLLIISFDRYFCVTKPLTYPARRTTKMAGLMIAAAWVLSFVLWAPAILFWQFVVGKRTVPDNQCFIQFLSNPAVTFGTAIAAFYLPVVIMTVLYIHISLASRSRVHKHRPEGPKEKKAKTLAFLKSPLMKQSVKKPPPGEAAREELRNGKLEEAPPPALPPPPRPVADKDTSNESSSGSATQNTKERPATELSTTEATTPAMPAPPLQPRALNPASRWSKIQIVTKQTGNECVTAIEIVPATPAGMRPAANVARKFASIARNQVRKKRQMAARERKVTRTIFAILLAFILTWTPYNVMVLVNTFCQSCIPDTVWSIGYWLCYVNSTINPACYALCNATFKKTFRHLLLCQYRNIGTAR
# Experiment: mAChR M4 cell-based functional assay: calcium mobilization (Fluo-4, FDSS), potentiation of EC20 acetylcholine response in hM4-Gqi5 CHO-K1 cells
# Conditions: human M4; for Emax at 30 µM: CHO-K1, % ACh maximum at 30 μM; for EC50: potentiation of EC20 acetylcholine response, calcium mobilization
# Outline: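 CHO-K1 cells stably co-expressing human M4 and chimeric Gqi5, loaded with Fluo-4 AM (50 min, 37 °C). Compounds in 11-point 1:3 series added first; EC20 acetylcholine added at 144 s and again at 230 s. Calcium read on FDSS at 1 Hz; EC50 and Emax from four-parameter logistic fit of potentiated EC20 response.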
Structure (SMILES),Emax at 30 µM,EC50
"COc1ccncc1-c1cnc2c(c1)CN(c1nn3c(=O)ccnc3c(C)c1C)CC2 [Compound 1-140, 7-(3-(4-methoxypyridin-3-yl)-7,8-dihydro-1,6-naphthyridin-6(5H)-yl)-8,9-dimethyl-4H-pyrimido[1,2-b]pyridazin-4-one]",89%,360 nM
"Cc1cc2nccc(=O)n2nc1N1CCc2ncc(-c3ccccc3C3(C#N)CC3)cc2C1 [Compound 1-438, 1-(2-(6-(8-methyl-4-oxo-4H-pyrimido[1,2-b]pyridazin-7-yl)-5,6,7,8-tetrahydro-1,6-naphthyridin-3-yl)phenyl)cyclopropane-1-carbonitrile]",45%,3900 nM
"Cc1ccncc1Nc1cnc2c(c1)CN(c1nn3c(=O)ccnc3cc1C)CC2 [Compound 2-124, 8-methyl-7-(3-((4-methylpyridin-3-yl)amino)-7,8-dihydro-1,6-naphthyridin-6(5H)-yl)-4H-pyrimido[1,2-b]pyridazin-4-one]",87%,163 nM
"COc1cnccc1-c1cnc2c(c1)CN(c1nn3c(=O)ccnc3c(C)c1C)CC2 [Compound 1-269, 7-(3-(3-methoxypyridin-4-yl)-7,8-dihydro-1,6-naphthyridin-6(5H)-yl)-8,9-dimethyl-4H-pyrimido[1,2-b]pyridazin-4-one]",88%,211 nM
"Cc1cc(=O)n2nc(N3CCc4ncc(-c5cnn(CCN(C)C)c5)cc4C3)c(C)c(C)c2n1 [Compound 1-177, 7-(3-(1-(2-(dimethylamino)ethyl)-1H-pyrazol-4-yl)-7,8-dihydro-1,6-naphthyridin-6(5H)-yl)-2,8,9-trimethyl-4H-pyrimido[1,2-b]pyridazin-4-one]",84%,1420 nM
"Cc1cc(=O)n2nc(N3CCc4ncc(N5CCOC(c6cccnc6)C5)cc4C3)c(C)c(C)c2n1 (stereo not shown) [Compound 2-49, 2,8,9-trimethyl-7-(3-(2-(pyridin-3-yl)morpholino)-7,8-dihydro-1,6-naphthyridin-6(5H)-yl)-4H-pyrimido[1,2-b]pyridazin-4-one]",75%,1200 nM
"Cc1cc2nc(C)c(F)c(=O)n2nc1N1CCc2ncc(C(F)(F)F)cc2C1 [Compound 1-15, 3-fluoro-2,8-dimethyl-7-(3-(trifluoromethyl)-7,8-dihydro-1,6-naphthyridin-6(5H)-yl)-4H-pyrimido[1,2-b]pyridazin-4-one]",73%,136 nM
"Cc1cc2nccc(=O)n2nc1N1CCc2ncc(Nc3cnccc3Cl)cc2C1 [Compound 2-135, 7-(3-((4-chloropyridin-3-yl)amino)-7,8-dihydro-1,6-naphthyridin-6(5H)-yl)-8-methyl-4H-pyrimido[1,2-b]pyridazin-4-one]",96%,112 nM
"Cc1ccc(-c2cnc3c(c2)CN(c2nn4c(=O)cc(C(F)F)nc4c(C)c2C)CC3)cc1F [Compound 1-191, 2-(difluoromethyl)-7-(3-(3-fluoro-4-methylphenyl)-7,8-dihydro-1,6-naphthyridin-6(5H)-yl)-8,9-dimethyl-4H-pyrimido[1,2-b]pyridazin-4-one]",84%,2400 nM
"Cc1cc2nccc(=O)n2nc1N1CCc2ncc(N3CCOC(c4ccccc4F)C3)cc2C1 (stereo not shown) [Compound 2-59, 7-(3-(2-(2-fluorophenyl)morpholino)-7,8-dihydro-1,6-naphthyridin-6(5H)-yl)-8-methyl-4H-pyrimido[1,2-b]pyridazin-4-one]",74%,268 nM
"Cc1c(N2CCc3ncc(-c4cccnc4)cc3C2)nn2c(=O)ccnc2c1C [Compound 1-148, 8,9-dimethyl-7-(3-(pyridin-3-yl)-7,8-dihydro-1,6-naphthyridin-6(5H)-yl)-4H-pyrimido[1,2-b]pyridazin-4-one]",89%,344 nM
"Cc1cc(=O)n2nc(N3CCc4ncc(-c5cnn(C)c5C)cc4C3)c(C)c(C)c2n1 [Compound 1-185, 7-(3-(1,5-dimethyl-1H-pyrazol-4-yl)-7,8-dihydro-1,6-naphthyridin-6(5H)-yl)-2,8,9-trimethyl-4H-pyrimido[1,2-b]pyridazin-4-one]",86%,752 nM
"Cc1cc2nccc(=O)n2nc1N1CCc2ncc(N3CCOC(C)(C)C3)cc2C1 [Compound 2-68, 7-(3-(2,2-dimethylmorpholino)-7,8-dihydro-1,6-naphthyridin-6(5H)-yl)-8-methyl-4H-pyrimido[1,2-b]pyridazin-4-one]",96%,113 nM
"Cc1cc(=O)n2nc(N3CCc4ncc(-c5cc(F)nc(F)c5)cc4C3)c(C)c(C)c2n1 [Compound 1-246, 7-(3-(2,6-difluoropyridin-4-yl)-7,8-dihydro-1,6-naphthyridin-6(5H)-yl)-2,8,9-trimethyl-4H-pyrimido[1,2-b]pyridazin-4-one]",80%,1020 nM
"Cc1cc2nccc(=O)n2nc1N1CCc2ncc(-c3ccc(F)c(Cl)c3)cc2C1 [Compound 1-59, 7-(3-(3-chloro-4-fluorophenyl)-7,8-dihydro-1,6-naphthyridin-6(5H)-yl)-8-methyl-4H-pyrimido[1,2-b]pyridazin-4-one]",99%,244 nM
"Cc1ccc(-c2cnc3c(c2)CN(c2nn4c(=O)cc(C(C)C)nc4c(C)c2C)CC3)cn1 [Compound 1-108, 2-isopropyl-8,9-dimethyl-7-(3-(6-methylpyridin-3-yl)-7,8-dihydro-1,6-naphthyridin-6(5H)-yl)-4H-pyrimido[1,2-b]pyridazin-4-one]",94%,158 nM
"Cc1cc(=O)n2nc(N3CCc4ncc(-c5cnccc5C)cc4C3)c(C)c(C)c2n1 [Compound 1-117, 2,8,9-trimethyl-7-(3-(4-methylpyridin-3-yl)-7,8-dihydro-1,6-naphthyridin-6(5H)-yl)-4H-pyrimido[1,2-b]pyridazin-4-one]",90%,198 nM

# The next lines start with the values.
Emax at 30 µM,EC50,Structure (SMILES)
68%,484 nM,"COCc1cc(=O)n2nc(N3CCc4ncc(-c5cc(F)ncc5C)cc4C3)c(C)cc2n1 [Compound 1-328, 7-(3-(2-fluoro-5-methylpyridin-4-yl)-7,8-dihydro-1,6-naphthyridin-6(5H)-yl)-2-(methoxymethyl)-8-methyl-4H-pyrimido[1,2-b] pyridazin-4-one]"
82%,136 nM,"COCc1cc(=O)n2nc(N3CCc4ncc(-c5cnccc5C)cc4C3)c(C)cc2n1 [Compound 1-359, 2-(methoxymethyl)-8-methyl-7-(3-(4-methylpyridin-3-yl)-7,8-dihydro-1,6-naphthyridin-6(5H)-yl)-4H-pyrimido[1,2-b] pyridazin-4-one]"
86%,74 nM,"Cc1cscc1-c1cnc2c(c1)CN(c1nn3c(=O)ccnc3cc1C)CC2 [Compound 1-394, 8-methyl-7-(3-(4-methylthiophen-3-yl)-7,8-dihydro-1,6-naphthyridin-6(5H)-yl)-4H-pyrimido[1,2-b]pyridazin-4-one]"
92%,46 nM,"COc1cc(C)c(-c2cnc3c(c2)CN(c2nn4c(=O)ccnc4cc2C)CC3)cn1 [Compound 1-387, 7-(3-(6-methoxy-4-methylpyridin-3-yl)-7,8-dihydro-1,6-naphthyridin-6(5H)-yl)-8-methyl-4H-pyrimido[1,2-b] pyridazin-4-one]"
87%,72 nM,"Cc1cc(=O)n2nc(N3CCc4ncc(-c5ccncc5C)cc4C3)c(C)c(C)c2n1 [Compound 1-245, 2,8,9-trimethyl-7-(3-(3-methylpyridin-4-yl)-7,8-dihydro-1,6-naphthyridin-6(5H)-yl)-4H-pyrimido[1,2-b] pyridazin-4-one]"
85%,498 nM,"Cc1cc(=O)n2nc(N3CCc4ncc(-c5cc(F)ncc5F)cc4C3)c(C)c(C)c2n1 [Compound 1-281, 7-(3-(2,5-difluoropyridin-4-yl)-7,8-dihydro-1,6-naphthyridin-6(5H)-yl)-2,8,9-trimethyl-4H-pyrimido[1,2-b]pyridazin-4-one]"
89%,68 nM,"Cc1cc(F)ncc1-c1cnc2c(c1)CN(c1nn3c(=O)ccnc3c(C)c1C)CC2 [Compound 1-149, 7-(3-(6-Fluoro-4-methylpyridin-3-yl)-7,8-dihydro-1,6-naphthyridin-6(5H)-yl)-8,9-dimethyl-4H-pyrimido[1,2-b]pyridazin-4-one]"
76%,405 nM,"Cc1cc(=O)n2nc(N3CCc4ncc(-c5cnn(C6CC6)c5)cc4C3)c(C)cc2n1 [Compound 1-32, 7-(3-(1-cyclopropyl-1H-pyrazol-4-yl)-7,8-dihydro-1,6-naphthyridin-6(5H)-yl)-2,8-dimethyl-4H-pyrimido[1,2-b]pyridazin-4-one]"
92%,477 nM,"Cc1ccc(-c2cnc3c(c2)CN(c2nn4c(=O)cc(C)nc4cc2C)CC3)c(C)c1 [Compound 1-292, 7-(3-(2,4-dimethylphenyl)-7,8-dihydro-1,6-naphthyridin-6(5H)-yl)-2,8-dimethyl-4H-pyrimido[1,2-b]pyridazin-4-one]"
